Source: ChEMBL document CHEMBL1147935, “Synthesis and antihypertensive activity of novel 3-benzyl-2-substituted-3H-[1,2,4]triazolo[5,1-b]quinazolin-9-ones” (2007)

Tests used:
Type in all cases: functional
Design in all cases: scale not given: the % may be the effect or the level left
Rattus norvegicus [1] = experiment: Antihypertensive activity in spontaneously hypertensive rat assessed as decrease in blood pressure at 5 mg/kg, po after 5 hrs by tail cuff method
Rattus norvegicus [2] = experiment: Antihypertensive activity in spontaneously hypertensive rat assessed as decrease in blood pressure at 5 mg/kg, po after 1 hr by tail cuff method
Rattus norvegicus [3] = experiment: Antihypertensive activity in spontaneously hypertensive rat assessed as decrease in blood pressure at 5 mg/kg, po after 4 hrs by tail cuff method
Rattus norvegicus [4] = experiment: Antihypertensive activity in spontaneously hypertensive rat assessed as decrease in blood pressure at 5 mg/kg, po after 2 hrs by tail cuff method
Rattus norvegicus [5] = experiment: Antihypertensive activity in spontaneously hypertensive rat assessed as decrease in blood pressure at 5 mg/kg, po after 3 hrs by tail cuff method

## Cc1nn2c(=O)c3ccccc3nc2n1Cc1ccccc1
Rattus norvegicus [1]
  Activity: 15.3%
Rattus norvegicus [2]
  Activity: 15.3%
Rattus norvegicus [3]
  Activity: 38.8%
Rattus norvegicus [4]
  Activity: 31.5%
Rattus norvegicus [5]
  Activity: 33.5%

## O=c1c2ccccc2nc2n(Cc3ccccc3)c(CCl)nn12
Rattus norvegicus [1]
  Activity: 6.7%
Rattus norvegicus [2]
  Activity: 3.7%
Rattus norvegicus [3]
  Activity: 17.2%
Rattus norvegicus [4]
  Activity: 11.9%
Rattus norvegicus [5]
  Activity: 15%

## O=c1c2ccccc2nc2n(Cc3ccccc3)c(CN3CCOCC3)nn12
Rattus norvegicus [1]
  Activity: 19.4%
Rattus norvegicus [2]
  Activity: 8.6%
Rattus norvegicus [3]
  Activity: 25.6%
Rattus norvegicus [4]
  Activity: 10%
Rattus norvegicus [5]
  Activity: 21.7%

## O=c1c2ccccc2nc2n(Cc3ccccc3)c(-c3ccccc3)nn12
Rattus norvegicus [1]
  Activity: 14.1%
Rattus norvegicus [2]
  Activity: 6.1%
Rattus norvegicus [3]
  Activity: 13.1%
Rattus norvegicus [4]
  Activity: 7.1%
Rattus norvegicus [5]
  Activity: 10.1%

## Cc1ccc(-c2nn3c(=O)c4ccccc4nc3n2Cc2ccccc2)cc1
Rattus norvegicus [1]
  Activity: 16.2%
Rattus norvegicus [2]
  Activity: 4.7%
Rattus norvegicus [3]
  Activity: 11.6%
Rattus norvegicus [4]
  Activity: 5.6%
Rattus norvegicus [5]
  Activity: 9.1%

## CCOc1ccc(-c2nn3c(=O)c4ccccc4nc3n2Cc2ccccc2)cc1
Rattus norvegicus [1]
  Activity: 16.5%
Rattus norvegicus [2]
  Activity: 6.5%
Rattus norvegicus [3]
  Activity: 13.6%
Rattus norvegicus [4]
  Activity: 7.6%
Rattus norvegicus [5]
  Activity: 9.52%

## O=c1c2ccccc2nc2n(Cc3ccccc3)cnn12
Rattus norvegicus [1]
  Activity: 19.8%
Rattus norvegicus [2]
  Activity: 5.4%
Rattus norvegicus [3]
  Activity: 20.8%
Rattus norvegicus [4]
  Activity: 7.3%
Rattus norvegicus [5]
  Activity: 17.3%

## CCCc1nn2c(=O)c3ccccc3nc2n1Cc1ccccc1
Rattus norvegicus [1]
  Activity: 15.7%
Rattus norvegicus [2]
  Activity: 13.4%
Rattus norvegicus [3]
  Activity: 17%
Rattus norvegicus [4]
  Activity: 20.5%
Rattus norvegicus [5]
  Activity: 19%

## COc1ccc(-c2nn3c(=O)c4ccccc4nc3n2Cc2ccccc2)cc1
Rattus norvegicus [1]
  Activity: 15.4%
Rattus norvegicus [2]
  Activity: 5.9%
Rattus norvegicus [3]
  Activity: 12.6%
Rattus norvegicus [4]
  Activity: 9.7%
Rattus norvegicus [5]
  Activity: 9.6%

## O=c1c2ccccc2nc2n(Cc3ccccc3)c(CN3CCCCC3)nn12
Rattus norvegicus [1]
  Activity: 13.1%
Rattus norvegicus [2]
  Activity: 3.6%
Rattus norvegicus [3]
  Activity: 16.1%
Rattus norvegicus [4]
  Activity: 5.1%
Rattus norvegicus [5]
  Activity: 9.1%

## COc1cc2nc(N3CCN(C(=O)c4ccco4)CC3)nc(N)c2cc1OC [PRAZOSIN]
Rattus norvegicus [1]
  Activity: 12.9%
Rattus norvegicus [2]
  Activity: 30.2%
Rattus norvegicus [3]
  Activity: 19.6%
Rattus norvegicus [4]
  Activity: 24.6%
Rattus norvegicus [5]
  Activity: 18%
